Target: T1, aldose reductase (Rattus norvegicus, UniProt P07943)
T1 construct: the lenses were excised and homogenized in cold distilled water; from tissue; host or cells: lens of male SD rats, homogenate supernatant (crude enzyme)
Assay: Inhibitory activity against aldose reductase (crude enzyme from rat lenses, NADPH oxidation at 340 nm, D,L-glyceraldehyde substrate)
Type: biochemical
Conditions: aldose reductase from SD rat lenses, pH 6.2, 30° C.; for inhibition at 10 µM: pH 6.2, 10^-5 M; for inhibition at 10 µM / inhibition at 1 µM: read-out: Percentage of inhibition (%); for inhibition at 1 µM: pH 6.2, 10^-6 M
Method: The compounds of the present invention were evaluated for the inhibitory activity against aldose reductase according to the following assay procedure.
Enzyme activity was assayed according to the modification [Biochemical Pharmacology, 25, 2505 (1976)] of the method described in J. Biol. Chem., 240, 877-882 (1965).
SD strain male rats were sacrificed by decapitation, the lenses were excised and homogenized in cold distilled water. The homogenate was then centrifuged and the supernatant was used as the crude aldose reductase solution.
Separately, a 0.1 M sodium phosphate buffer (pH 6.2) containing 0.4 M ammonium sulfate was prepared at 30° C. In this buffer were dissolved the present compound, the crude aldose reductase solution and nicotinamide-adenine dinucleotide phosphate, reduced form (NADPH). The mixture was preincubated at 30° C. for 3 minutes and the reaction was initiated by addition of D,L-glyceraldehyde. In this case, the concentration of the present compound dissolved was 10^-5 M and 10^-6 M, respectively. The total amount of the assay mixture was 1.0 ml, containing 0.16 mM of NADPH, 10 mM of D,L-glyceraldehyde and 0.010-0.016 units of aldose reductase.
The inhibitory activity of the present compounds against aldose reductase was measured using each 1.0 ml of the reaction mixture containing the present compound in the above concentration. In this measurement, the rate of NADPH oxidation was followed by recording the decrease in absorbance at 340 nm. The inhibitory activity of the present compounds against aldose reductase as measured was expressed in percentage of inhibition (%) as a relative activity based on a control value.

Compound	inhibition at 10 µM	inhibition at 1 µM	Percentage of inhibition (%) (10^-5 M)	Percentage of inhibition (%) (10^-6 M)
COc1cc(C=C(C)C=C2SC(=S)NC2=O)ccc1OCC(=O)O [Example 76, 2-Methoxy-4-[2-methyl-3-(4-oxo-2-thioxo-5-thiazolinylidene)-1-propenyl]phenoxyacetic acid]	88.5%	58.6%		
CC(C=Cc1ccc(OCC(=O)O)cc1)=C1SC(=S)NC1=O (single isomer, unassigned) [21 Isomer B]			89.8%	
COc1cccc(CCC(C)=C2SC(=S)NC2=O)c1OCC(=O)O [Example 73, 2-Methoxy-6-(3-(4-oxo-2-thioxo-5-thiazolinylidene)butyl]phenoxyacetic acid]	59.2%			
COC(=O)COc1ccc(C=CC(C)=C2SC(=S)NC2=O)cc1OCC(=O)OC (single isomer, unassigned) [60 Isomer B]			70.3%	30.4%
CC(C=Cc1cc(C)c(OCC(=O)O)c(C)c1)=C1SC(=S)NC1=O [Example 87, 2,6-Dimethyl-4-[3-(4-oxo-2-thioxo-5-thiazolinylidene)-1-butenyl]phenoxyacetic acid]	89.6%	60.5%		
O=C1NC(=S)SC1=Cc1ccc(OCCCCc2nnn[nH]2)cc1 [Example 20, 5-{4-[4-(1H-Tetrazol-5-yl)butyloxy]benzylidene}-4-oxo-2-thioxothiazolidine]	84%	43.9%		
CCCCOC(=O)COc1ccc(Cl)cc1C=CC(C)=C1SC(=S)NC1=O (single isomer, unassigned) [51 Isomer B]			58.7%	
CCCCCCC(CCc1ccc(CCC(=O)O)cc1)=C1SC(=S)NC1=O (single isomer, unassigned) [33 Isomer B]			30.5%	
5-[α-Methyl-4-(1H-tetrazol-5-yl)cinnamylidene)-4-oxo-2-thioxothiazolidine [Example 17]			77.6%	35.9%
O=C(O)CCC(C=Cc1cccc(O)c1)=C1SC(=S)NC1=O (single isomer, unassigned) [Example 25, 6-(3-Hydroxyphenyl)-4-(4-oxo-2-thioxo-5-thiazolidinylidene)-5-hexenoic acid]	82%	32.9%		
CCCC(C=Cc1ccc(C(=O)O)cc1)=C1SC(=S)NC1=O (single isomer, unassigned) [3 Isomer A]	77.1%	29.7%		
CC(C(=O)Nc1ccccc1C(=O)O)=C1SC(=S)NC1=O [Example 36, N-[2-(4-Oxo-2-thioxo-5-thiazolidinylidene)propionyl]anthranilic acid]	94%	80%		
COc1cc(C=CC(C)=C2SC(=S)NC2=O)cc(OC)c1OCC(=O)O [Example 74, 2,6-Dimethoxy-4-[3-(4-oxo-2-thioxo-5-thiazolinylidene)-1-butenyl]phenoxyacetic acid]	74.3%			
CC(C=Cc1cc(C(C)C)ccc1OCC(=O)O)=C1SC(=S)NC1=O [Example 85, 4-Isopropyl-2-[3-(4-oxo-2-thioxo-5-thiazolinylidene)-1-butenyl]phenoxyacetic acid]	92%	77.6%		
CCCCCCC(C=Cc1ccc(C(=O)O)cc1)=C1SC(=S)NC1=O (single isomer, unassigned) [26 Isomer A]		68.9%	92.0%	
COc1cc(C=CC(C)=C2SC(=S)N(C)C2=O)ccc1OCC(=O)O [Example 78, 2-Methoxy-4-[3-(3-methyl-4-oxo-2-thioxo-5-thiazolinylidene)-1-butenyl]phenoxyacetic acid]	87.1%	65.9%		

Compound	inhibition at 10 µM	inhibition at 1 µM	Percentage of inhibition (%) (10^-5 M)	Percentage of inhibition (%) (10^-6 M)
CCOC(=O)CCC(C=Cc1cccs1)=C1SC(=S)NC1=O (single isomer, unassigned) [13 Isomer B]			54.3%	
COc1ccc(C=CC(C)=C2SC(=S)NC2=O)cc1OCC(=O)O [Example 82, 2-Methoxy-5-[3-(4-oxo-2-thioxo-5-thiazolinylidene)-1-butenyl]phenoxyacetic acid]	67.6%	22.1%		
CCOC(=O)COc1ccc(C=CC(C)=C2SC(=S)N(C)C2=O)cc1OC (single isomer, unassigned) [55 Isomer A]	38.1%	23.8%		
CCOC(=O)COc1ccccc1C=CC(C)=C1SC(=S)NC1=O [Example 39, Ethyl 2-[3-(4-oxo-2-thioxo-5-thiazolinylidene)-1-butenyl]phenoxacetate]	62.6%	50.9%		
O=C(O)CCC(C=Cc1ccc(C(F)(F)F)cc1)=C1SC(=S)NC1=O (single isomer, unassigned) [Example 23, 6-(4-Trifluoromethylphenyl)-4-(4-oxo-2-thioxo-5-thiazolidinylidene)-5-hexenoic acid]	64.6%			
CCC(CCc1cccn1CCC(=O)O)=C1SC(=S)NC1=O [Example 34, 3-{2-[3-(4-Oxo-2-thioxo-5-thiazolidinylidene)pentyl]pyrrol-1-yl}propionic acid]	80.8%	35.5%		
COc1cccc(C=CC(C)=C2SC(=S)NC2=O)c1OCC(=O)O [Example 72, 2-Methoxy-6-[3-(4-oxo-2-thioxo-5-thiazolinylidene)-1-butenyl] phenoxyacetic acid]	80.1%	24.8%		
CC(C=Cc1ccc(OCC(=O)O)cc1)=C1SC(=S)NC1=O (single isomer, unassigned) [21 Isomer A]	94.9%	78.3%		
CCOc1cc(C=CC(C)=C2SC(=S)NC2=O)ccc1OCC(=O)O [Example 70]	87.4%	62.2%		
Ethyl 4-[3-(4-oxo-2-thioxo-5-thiazolidinylidene)-1-butenyl]-methoxyphenoxyacetate [Example 15]			66.7%	35.3%
CC(C=Cc1ccccc1OCC(=O)O)=C1SC(=S)NC1=O [Example 67, 2-[3-(4-Oxo-2-thioxo-5-thiazolinylidene)-1-butenyl]phenoxyacetic acid]	95.3%	79.4%		
CCOC(=O)COc1ccc(C=C(C)C=C2SC(=S)NC2=O)cc1OC [Example 53, Ethyl 2-methoxy-4-[2-methyl-3-(4-oxo-2-thioxo-5-thiazolinylidene)-1-propenyl]phenoxyacetate]	71.3%	32%		
O=C(O)CCC(C=Cc1ccccc1F)=C1SC(=S)NC1=O (single isomer, unassigned) [Example 22, 6-(2-Fluorophenyl)-4-(4-oxo-2-thioxo-5-thiazolidinylidene)-5-hexenoic acid]	88.1%	41.9%		
CC(=Cc1ccccc1OCC(=O)O)C=C1SC(=S)NC1=O [Example 86, 2-[2-Methyl-3-(4-oxo-2-thioxo-5-thiazolinylidene)-1-propenyl]phenoxyacetic acid]			89.7%	69.6%
CCOC(=O)CCC(C=Cc1cccs1)=C1SC(=S)NC1=O (single isomer, unassigned) [13 Isomer A]	56%			
COC(=O)COc1ccc(Br)cc1C=CC(C)=C1SC(=S)NC1=O [Example 56, Methyl 4-bromo-2-[3-(4-oxo-2-thioxo-5-thiazolinylidene)-1-butenyl]phenoxyacetate]	63.9%	27.1%		

From patent US5116855A, “Rhodanine derivatives and pharmaceutical compositions” (Nisshin Flour Milling Co., Ltd., priority 1989, dated 1992)
